Experimental data published in publication PMC8197720, “Targeted radioimmunotherapy with the iodine-131-labeled caerin 1.1 peptide for human anaplastic thyroid cancer in nude mice” (Annals of Nuclear Medicine, 2021).

How the values were obtained:
CAL-62 tumor = test: CAL-62 subcutaneous xenograft treatment experiment with H&E and TUNEL staining; assay type: in vivo, BALB/C nude mice; details: tumor sections after treatment, compared to PBS group
Procedure: (§1) To reduce the unnecessary thyroid uptake of ^131I, before the in vivo experiments, all nude mice were fed potassium iodide in a concentration of 0.1% for 3 days to saturate the thyroid. CAL-62 tumor-bearing mice were randomly divided into four groups (n = 5 per group) that received one of the following treatments: PBS, F1 only, ^131I-F1, ^131I only. The mice were injected intratumorally with 100 µl PBS containing 8 µg of F1 peptide, 200 µCi of ^131I or 8 µg of F1 peptide labeled with 200 µCi ^131I every 3 days for a total of three times. Then, 3 days after the final treatment, the mice were sacrificed, and the tumors were isolated and weighed.

[1] = Body weight of CAL-62 tumor-bearing mice under treatment; assay type: in vivo, BALB/C nude mice; details: intratumoral, 8 µg F1 and/or 200 µCi 131I every 3 days, three times, n = 5, mean ± SD
Procedure: as §1
Next, we studied whether F1 was able to inhibit CAL-62 cell growth in vivo. Nude mice were subcutaneously injected with 5 × 10^5 CAL-62 cells. When the tumor diameters were close to 6 mm, the mice were treated with 100 µl PBS containing 8 µg of F1 peptide, 200 µCi of ^131I or 8 µg of F1 peptide labeled with 200 µCi ^131I every 3 days for a total of three times. […] The mice were euthanized, and the tumors were isolated and weighed.

[2] = tested on: cervical cancer cell (TC-1); details: 30 μg of peptide; cited from earlier work
Excerpt: First, ^131I-F1 was successfully synthesized using the chloramine-T method. […] Furthermore, a subcutaneous xenograft model was used to investigate the antitumor activity of ^131I-F ...

| Compound | H&E staining of tumors (ablation/necrosis of tumor cells) (CAL-62 tumor) | Weight of the mice three days after the final treatment [1] | Inhibitory effect on TC-1 in vivo [2] |
| --- | --- | --- | --- |
| [131I-].[Na+] [^131I, iodine-131] | only a few necrosis events | 16.43 ± 1.386 g |  |
| caerin 1.9 [F3] |  |  | significant inhibitory effect |
